Values joined by “and” are separate entries in the source; they are usually repeats but may differ in a detail not shown here. Identical values can stand only once.
Columns and labels:
[1] = Pharmacokinetics of tucaresol after a single dose in healthy subjects
Hepa 1-6 tumor cells = assay: In vivo efficacy in subcutaneous Hepa 1-6 mouse liver cancer model; design: species or system C57BL/6 mice; settings: p.o.
Method: The study evaluated preclinically in vivo therapeutic efficacy of tucaresol and Compound C02 as a single agent in the treatment of subcutaneous Hepa 1-6 liver cancer models in C57BL/6 mice.
Cell Culture: The Hepa 1-6 tumor cells were maintained in vitro as a monolayer culture in DMEM medium supplemented with 10% fetal bovine serum at 37° C. in an atmosphere of 5% CO2 in air. The cells in an exponential growth phase were harvested and counted for tumor inoculation.
Tumor Inoculation: Each C57BL/6 mouse was subcutaneously inoculated at the right flank with Hepa 1-6 tumor cells (5×10^6) in 0.1 ml of PBS for tumor development. The date of tumor cell inoculation was denoted as day 0.
Randomization: The randomization started when the mean tumor size reached approximately 100-150 mm^3 in each model. […]
After tumor cell inoculation, the animals were checked daily for morbidity and mortality. During routine monitoring, the animals were checked for any effects of tumor growth and treatments on behavior such as mobility, food and water consumption, body weight gain/loss (body weights will be measured twice per week after randomization), eye/hair matting and any other abnormalities. Mortality and observed clinical signs were recorded for individual animals in detail. […]
Tumor growth inhibition (TGI): TGI % is an indication of antitumor activity, and expressed as: TGI (%)=100×(1−T/C). […]

[2] = plasma, single dose 400 mg, single subjects
[3] = plasma, single dose 800 mg, single subjects
[4] = plasma, single dose 1200 mg, single subjects
[5] = plasma, single dose 2000 mg, single subjects
[6] = plasma, single dose 2800 mg, single subjects
[7] = plasma, single dose 3600 mg, single subjects

Work on O=Cc1c(O)cccc1OCc1ccc(C(=O)O)cc1 [Tucaresol] yielded a half-life ([1]; human, in vivo, 2000 mg) of 222 h, a Tmax ([1]; human, in vivo, 2800 mg) of 7.5 h and a half-life ([1]; human, in vivo, 2800 mg) of 223 h. For the same compound, the Cmax ([1]; human, plasma, 200 mg, Cmax, single dose 200 mg, single subjects) was 9.9 µg/mL, the Tmax ([1]; human, plasma, 200 mg, tmax, single dose 200 mg, single subjects) was 5 h and the AUC ([1]; human, plasma, 400 mg, AUC, single dose 400 mg, single subjects) was 2830 µg·h/mL. The Cmax ([1]; human, plasma, 400 mg, Cmax, single dose 400 mg, single subjects) was 16.6 µg/mL, the half-life ([1]; human, plasma, 400 mg, t1/2,z, single dose 400 mg, single subjects) was 133 h and the Tmax ([1]; human, plasma, 400 mg, tmax, single dose 400 mg, single subjects) was 4.03 h. For the same compound, the AUC ([1]; human, plasma, 800 mg, AUC, single dose 800 mg, single subjects) was 4890 µg·h/mL, the Cmax ([1]; human, plasma, 800 mg, Cmax, single dose 800 mg, single subjects) was 28.3 µg/mL and the half-life ([1]; human, plasma, 800 mg, t1/2,z, single dose 800 mg, single subjects) was 134 h. The Tmax ([1]; human, plasma, 800 mg, tmax, single dose 800 mg, single subjects) was 4 h, the AUC ([1]; human, plasma, 1200 mg, AUC, Mean, single dose 1200 mg) was 8860 µg·h/mL and the Cmax ([1]; human, plasma, 1200 mg, Cmax, Mean, single dose 1200 mg) was 38.4 µg/mL. For the same compound, the Cmax ([1]; human, plasma, 1200 mg, Cmax, single dose 1200 mg, single subjects) was 40.4 µg/mL, the half-life ([1]; human, plasma, 1200 mg, t1/2,z, Mean, single dose 1200 mg) was 195 h and the Tmax ([1]; human, plasma, 1200 mg, tmax, Mean, single dose 1200 mg) was 6.5 h. It also gave a Tmax ([1]; human, plasma, 1200 mg, tmax, single dose 1200 mg, single subjects) of 8 h, an AUC ([1]; human, plasma, 2000 mg, AUC, Mean, single dose 2000 mg) of 14800 µg·h/mL and an AUC ([1]; human, plasma, 2000 mg, AUC, single dose 2000 mg, single subjects) of 16300 µg·h/mL. The Cmax ([1]; human, plasma, 2000 mg, Cmax, Mean, single dose 2000 mg) was 58.6 µg/mL, the Cmax ([1]; human, plasma, 2000 mg, Cmax, single dose 2000 mg, single subjects) was 60.8 µg/mL and the half-life ([1]; human, plasma, 2000 mg, t1/2,z, Mean, single dose 2000 mg) was 229 h. The half-life ([1]; human, plasma, 2000 mg, t1/2,z, single dose 2000 mg, single subjects) was 278 h, the Tmax ([1]; human, plasma, 2000 mg, tmax, Mean, single dose 2000 mg) was 5.5 h and the Tmax ([1]; human, plasma, 2000 mg, tmax, single dose 2000 mg, single subjects) was 6 h. It also gave an AUC ([1]; human, plasma, 2800 mg, AUC, Mean, single dose 2800 mg) of 16900 µg·h/mL, an AUC ([1]; human, plasma, 2800 mg, AUC, single dose 2800 mg, single subjects) of 12900 µg·h/mL and a Cmax ([1]; human, plasma, 2800 mg, Cmax, Mean, single dose 2800 mg) of 73.7 µg/mL. The Cmax ([1]; human, plasma, 2800 mg, Cmax, single dose 2800 mg, single subjects) was 56.6 µg/mL, the half-life ([1]; human, plasma, 2800 mg, t1/2,z, single dose 2800 mg, single subjects) was 232 h and the Tmax ([1]; human, plasma, 2800 mg, tmax, single dose 2800 mg, single subjects) was 6 h. It also gave an AUC ([1]; human, plasma, 3600 mg, AUC, Mean, single dose 3600 mg) of 26600 µg·h/mL, an AUC ([1]; human, plasma, 3600 mg, AUC, single dose 3600 mg, single subjects) of 25400 µg·h/mL and a Cmax ([1]; human, plasma, 3600 mg, Cmax, Mean, single dose 3600 mg) of 95.8 µg/mL. The Cmax ([1]; human, plasma, 3600 mg, Cmax, single dose 3600 mg, single subjects) was 81.7 µg/mL, the half-life ([1]; human, plasma, 3600 mg, t1/2,z, Mean, single dose 3600 mg) was 289 h and the half-life ([1]; human, plasma, 3600 mg, t1/2,z, single dose 3600 mg, single subjects) was 291 h. It also gave a Tmax ([1]; human, plasma, 3600 mg, tmax, Mean, single dose 3600 mg) of 10 h, a Tmax ([1]; human, plasma, 3600 mg, tmax, single dose 3600 mg, single subjects) of 6.08 h and a Cmax ([1]; plasma, single dose 200 mg, single subjects) of 11.1 µg/mL. For the same compound, the AUC [1, 2] was 3562 µg·h/mL, the CL0 [1, 2] was 2.35 mL/min and 1.86 mL/min and the Cmax [1, 2] was 19.6 µg/mL. The Tmax [1, 2] was 3.00 h, the “t1/2,z” value [1, 2] was 190 h and the AUC [1, 3] was 5759 µg·h/mL. The CL0 [1, 3] was 2.72 mL/min and 2.31 mL/min, the Cmax [1, 3] was 36.5 µg/mL and the Tmax [1, 3] was 4.08 h. The “t1/2,z” value [1, 3] was 126 h, the “CL0, Mean” value ([1]; plasma, single dose 1200 mg) was 2.40 mL/min and the AUC [1, 4] was 12103 µg·h/mL and 9180 µg·h/mL and 5987 µg·h/mL and 8161 µg·h/mL. The CL0 [1, 4] was 1.65 mL/min and 2.17 mL/min and 3.33 mL/min and 2.44 mL/min, the Cmax [1, 4] was 40.1 µg/mL and 39.3 µg/mL and 33.7 µg/mL and the “t1/2,z” value [1, 4] was 252 h and 192 h and 123 h and 215 h. The “CL0, Mean” value ([1]; plasma, single dose 2000 mg) was 2.27 mL/min, the AUC [1, 5] was 16487 µg·h/mL and 14010 µg·h/mL and 12455 µg·h/mL and the CL0 [1, 5] was 2.04 mL/min and 2.01 mL/min and 2.37 mL/min and 2.67 mL/min. For the same compound, the Cmax [1, 5] was 59.3 µg/mL and 57.1 µg/mL, the “t1/2,z” value [1, 5] was 207 h and 209 h and the “CL0, Mean” value ([1]; plasma, single dose 2800 mg) was 2.85 mL/min. The AUC [1, 6] was 20871 µg·h/mL and 15635 µg·h/mL and 18018 µg·h/mL, the CL0 [1, 6] was 3.61 mL/min and 2.23 mL/min and 2.97 mL/min and 2.58 mL/min and the Cmax [1, 6] was 87.7 µg/mL and 91.4 µg/mL and 59.3 µg/mL. The Tmax [1, 6] was 12.00 h, the “t1/2,z” value [1, 6] was 240 h and 178 h and 241 h and the “CL0, Mean” value ([1]; plasma, single dose 3600 mg) was 2.26 mL/min. For the same compound, the AUC [1, 7] was 27818 µg·h/mL and 24131 µg·h/mL and 29116 µg·h/mL, the CL0 [1, 7] was 2.36 mL/min and 2.15 mL/min and 2.48 mL/min and 2.05 mL/min and the Cmax [1, 7] was 86.3 µg/mL and 80.3 µg/mL and 134.7 µg/mL. For the same compound, the “t1/2,z” value [1, 7] was 329 h and 265 h and 268 h.
With O=Cc1c(OCc2ccc(C(=O)O)cc2)cccc1OC1O[C@H](CO)[C@@H](O)[C@H](O)[C@H]1O (some centres unmarked) [Compound C02] the “efficacy of once a day for five days (QD×5) against every-other-day administration” value (Hepa 1-6 tumor cells) was “greater efficacy than every-other-day administration”.

— US20220387365A1, “TUCARESOL DERIVATIVES AND USES THEREOF” (BeyondSpring Pharmaceuticals, Inc., priority 2019, published 2022)
